Data reported in PMC11053681, “Gold(I) and Silver(I) Complexes Containing Hybrid Sulfonamide/Thiourea Ligands as Potential Leishmanicidal Agents” (Pharmaceutics, 2024).
Entries after “also recorded” stand apart in the source; their conditions may differ.

Tests used:
Vero cells = experiment: Cytotoxicity assay on Vero cells (resazurin); assay type: cell-based, African green monkey; conditions: 24 h treatment
In short: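 Vero cells seeded at 5 × 10^5 cells/well, grown 24 h at 37 °C, 5% CO2 in RPMI with 10% FBS. Compounds tested in triplicate by serial dilution from 500 µM to 3.9 µM for 24 h. Viability read as resazurin fluorescence.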

Leishmania braziliensis = experiment: Leishmanicidal activity against promastigotes (resazurin); assay type: cell-based
In short: (§1)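 Stationary-phase (day 5) metacyclic promastigotes were purified by centrifugation and plated at 1 × 10^7 parasites per well in Schneider medium. Compounds were tested in triplicate from 500 µM down to 3.9 µM by serial dilution for 24 h. Viability was read by resazurin fluorescence.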

Leishmania infantum = experiment: as above; assay type: cell-based; conditions: promastigote form, 24 h treatment, resazurin; read-out: IC50 L. infantum
In short: as §1

[1] = system: RAW macrophages infected with Leishmania infantum; experiment: Infectivity test / infection rate in RAW macrophages; assay type: cell-based; conditions: three concentrations (below IC50, IC50, above IC50), 24 h treatment
Procedure: For the infection of RAW macrophages adhered to the plates, we used parasites in the promastigote form of Leishmania infantum, in the stationary phase, in a ratio of 10:1 (promastigotes/macrophages).
Macrophages were plated in the amount of 5 × 10^4 cells per well, in 96-well plates, which were kept in a CO2 oven at 37 °C for 24 h. The parasites were plated at a concentration of 10:1. The plates were kept in a CO2 oven for 12 h until the parasites infected the cells. […] Plates were fixed with paraformol for further evaluation. Plaques were evaluated by counting parasites within 200 cells under the EVOS Cell Imaging System (Thermo Scientific, Waltham, MA, USA) microscope by staining with propidium iodide.
In view of the data obtained, the six most promising compounds (HL1^Ch, HL2^Ph, Ag3, Ag4, Ag6 and Au2) were selected for carrying out the infection rate test against the L. infantum parasite. […] This test was performed at four stages. The first step determined the percentage of the amount in 200 infected macrophages per parasite, the second determined the percentage of parasites that infects 100 cells/macrophages, the third determined the average percentage of parasites that infects 200 cells/macrophages and, finally, the fourth step indicated the infection rate, that is, the result of the amount of Leishmania per macrophage (obtained from the third step) multiplied by the percentage of infected macrophages. Figure 5 presents the graphs of the infection rates, while the other graphs can be found in Figure S7.4.

LbOYE = LbOYE (Leishmania braziliensis, UniProt A4H6Z3); experiment: LbOYE enzyme kinetics (NADPH decay at 340 nm); assay type: biochemical; conditions: 20 µmol L^−1 compound, 1 µmol L^−1 LbOYE, 100 µmol L^−1 NADPH; substrates NEM and O2
Sequence of LbOYE (A4H6Z3 entry or part of it): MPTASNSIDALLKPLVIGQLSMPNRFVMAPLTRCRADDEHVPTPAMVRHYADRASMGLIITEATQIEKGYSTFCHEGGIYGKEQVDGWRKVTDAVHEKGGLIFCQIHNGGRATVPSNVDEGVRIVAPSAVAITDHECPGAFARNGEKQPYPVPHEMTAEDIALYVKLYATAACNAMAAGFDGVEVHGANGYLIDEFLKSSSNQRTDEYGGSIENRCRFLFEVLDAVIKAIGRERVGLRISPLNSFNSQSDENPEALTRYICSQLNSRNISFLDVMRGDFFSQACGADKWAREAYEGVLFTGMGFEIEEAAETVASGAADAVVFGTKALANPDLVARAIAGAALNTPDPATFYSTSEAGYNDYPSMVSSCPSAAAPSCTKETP
Procedure: The initial rates were obtained through the decay of the band at 340 nm referring to the maximum absorption of the NADPH (Nicotinamide Adenine Dinucleotide Phosphate) reducer, as previously reported. Solutions containing 1 µmol L^−1 of LbOYE, DMSO or 20 µmol L^−1 of the tested compounds from a stock solution at a concentration of 5 mmol L^−1 in DMSO were prepared in the presence and absence of the substrate N-Ethylmaleimide (NEM). These solutions were left for 30 min at room temperature. After 30 min, the NADPH reducer was added at a final concentration of 100 µmol L^−1.
Figure 7 Initial velocity (V0) for the reaction between 1 µmol L^−1 of LbOYE and 100 µmol L^−1 of NADPH in the presence of DMSO (control) or 20 µmol L^−1 of the compounds tested. Using (A) 100 µmol L^−1 of NEM in the presence of O2 and (B) absence of NEM in the presence of O2. Experiments carried out in phosphate buffer 25 mmol L^−1 pH 7.0, NaCl 100 mmol L^−1.

Cc1ccc(S(=O)(=O)NNC(Nc2ccc(F)cc2)=[S][Ag+][S]=C(NNS(=O)(=O)c2ccc(C)cc2)Nc2ccc(F)cc2)cc1.O=[N+]([O-])[O-] [Ag3, [Ag(HL3^FPh)2]NO3]
CC50 (Vero cells): > 500 µM | IC50 (Leishmania braziliensis; promastigote form, 24 h treatment, resazurin, read-out: IC50 L. braziliensis): 233.9 ± 0.031 µM | SI L. braziliensis (Leishmania braziliensis; selectivity index = CC50 (Vero) / IC50 (L. braziliensis promastigotes)): >2.14 | IC50 (Leishmania infantum): 92.83 ± 0.072 µM | Infection rate of L. infantum in macrophages, in words [1]: able to inhibit the parasite infection inside the cells even at lower concentrations than that determined by their IC50 values; also recorded: able to inhibit the parasite infection even at lower concentrations than that of their IC50 values | Inhibition of LbOYE reaction (initial velocity V0), in words (LbOYE): capable of inhibiting the reaction of the enzyme both with the NEM and for O2
